# Assays:
# TC-1 target cells = assay: Cytotoxicity assay; assay type: cell-based, mice; settings: splenocytes one week post-vaccination, 5 days E749-57 + IL-2, effectors against TC-1 for 4 hrs
# Procedure: Mice with ˜3-4 mm TC-1 tumors in diameter were vaccinated subcutaneously with vaccine formulations containing E7 protein (50 μg) alone or with SA-4-1BBL (25 μg), MPL (25 μg), or the combination of both agents (25 μg/agent). One week post-vaccination, splenocytes were cultured with 10 μg of E749-57 peptide/mL in complete MLR medium supplemented with 50 IU/mL of IL-2. Viable lymphocytes were harvested 5 days later using a Ficoll gradient and used as effectors at various ratios against TC-1 target cells for 4 hrs as described (41).
# [1] = system: intratumoral CD8^+ T cells and CD4^+Foxp3^+ Treg cells in TC-1 tumor; assay: Intratumoral CD8+ T cells and CD4+Foxp3+ Treg cells by confocal microscopy; assay type: in vivo, mice; settings: one week post-vaccination
# Procedure: (§1) Spleens and/or tumor draining lymph nodes (TdLNs) were processed as described previously (7). For memory T cell typing, lymphocytes were stained with anti-CD8-APC-Cy7, anti-CD62L-FITC, and anti-CD44-APC antibodies. For intracellular cytokine staining, lymphocytes (1×10^6 cells/mL) were stimulated either with 10 μg/mL E749-57 peptide for 2 hrs followed by incubation with GolgiPlug (1 μl/mL, BD PharMingen) overnight or with phorbol 12-myristate 13-acetate (PMA) (5 ng/ml, Sigma) and ionomycin (500 ng/ml, Sigma) for 2 hrs followed by incubation with GolgiPlug (1 μl/ml) for an additional 4 hrs. Cells were first stained with anti-CD44-APC and anti-CD8-APC-Cy7, fixed with 4% paraformaldehyde, and then stained with anti-IFN-γ-PE-Cy7, anti-IL-2-Percp-Cy5.5, anti-TNF-PE, or isotype controls followed by acquisition and analysis as previously reported (12). Intratumoral CD8^+ T cells and CD4^+Foxp3^+ Treg cells were analyzed using confocal microscopy as described (12).
# Mice bearing ˜3-4 mm TC-1 tumor were vaccinated subcutaneously with various vaccine formulations. One week post-vaccination, tumors were harvested and analyzed for the presence of intratumoral CD8^+ T cells and CD4^+FoxP3^+ Treg cells using confocal microscopy. […] (FIG. 3A, B).
# TC-1 tumors [2] = assay: Therapeutic vaccination in the established TC-1 tumor model; assay type: in vivo, C57BL/6 mice; settings: single subcutaneous vaccination day 6 post-tumor challenge, E7 protein 50 μg plus adjuvant 25 μg/agent; 90 days observation
# Description: (§2) C57BL/6 mice were challenged subcutaneously with 1×10^5 live TC-1 cells into the right flank.
# [3] = system: E749-57 peptide-specific CD8^+ T cells; assay: Primary CD8+ T cell intracellular IFN-γ response of tumor draining lymphocytes; assay type: in vivo, mice; settings: one week post-vaccination
# Procedure: as §1
# [4] = system: 3LL pulmonary metastatic tumors; assay: 3LL pulmonary metastasis model, vaccination with survivin; assay type: in vivo, mice; settings: single subcutaneous vaccination day 6 with SVN 50 μg plus adjuvant; lungs day 27
# Procedure: For the pulmonary tumor model, 2×10^5 live 3LL cells were injected intravenously into the tail vein of mice. Mice were vaccinated subcutaneously either once on day 6 or twice on days 6 and 13 post-tumor challenge with various vaccine formulations containing survivin (SVN) protein (50 μg) alone as control or with SA-4-1BBL (25 μg), MPL (25 gig), or the combination of both agents (25 μg/agent). Mice were euthanized 27 days post-tumor challenge for analysis of lung tumor burden as described (12, 18).
# TC-1 tumors [5] = assay: TC-1 tumor model with antibody depletion of CD8+ or CD4+ T cells before vaccination; assay type: in vivo, mice; settings: E7 + MPL
# Procedure: as §2
# To test if a high CD8^+ Teff/Treg cell ratio can serve as a predictor of vaccine therapeutic efficacy, we used antibodies against CD8 and CD4 molecules to deplete CD8^+ Teff and Treg cells, respectively. Mice with established TC-1 tumors were treated with depleting antibodies one day before vaccination with E7 protein admixed with SA-4-1BBL/MPL or MPL as monotherapy.
substance,measurement,setting,value
3-O-desacyl-4′-monophosphoryl lipid A [MPL],TC-1 killing response,TC-1 target cells,failed to do so
same,intratumoral Teff/Treg cell ratio,[1]; TC-1 tumor,no effect
same,number of intratumoral CD8+ T cells infiltration,[1]; TC-1 tumor,moderate effect
same,number of intratumoral Treg cells,"[1]; ~3-4 mm TC-1 tumor, versus PBS controls or E7 protein alone",did not have detectable effect
same,"eradication of established TC-1 tumors, mice tumor-free",TC-1 tumors [2],50%
same,E7 TAA-specific CD8+ T cell IFN-γ response (primary),[3],failed to do so
same,control of tumor growth (lung weight and presence of tumor nodules),[4],statistically significant (P<0.05) effect in controlling tumor growth
same,therapeutic efficacy,TC-1 tumors [5]; depletion of CD4+ T cells including Treg cells one day before vaccination,100%
same,therapeutic efficacy,TC-1 tumors [5]; without depletion,50%

# From US20140199347A1, “ADJUVANT COMPOSITIONS WITH 4-1BBL” (UNIVERSITY OF LOUISVILLE RESEARCH FOUNDATION, INC., priority 2011, published 2014)
